Results: patent publication US20230040909A1 (priority 2019, published 2023)
≈ marks a conversion by molar mass, not a printed value. Like-named read-outs stand apart in the source and are kept apart here.

Tests used:
[1] = test system: M. tb H37Rv; assay: microbe, parasite or virus in culture; assay type: cell-based, Mycobacterium tuberculosis; settings: for MIC: Mycobacterium tuberculosis, H37RV, read-out: M. tb H37Rv: MIC-MABA
[2] = test system: Mycobacterium abscessus; assay: M. ab_ATCC MIC MHII; assay type: cell-based; settings: for MIC: Mycobacteroides abscessus, read-out: M. ab_ATCC: MIC MHII: MIC
From the text: The procedure described in Franz 2017 was used to generate the data shown in column 5 of Table 4.

[3] = test system: VERO Cell; assay: VERO cell cytotoxicity; assay type: cell-based
From the text: (§1) The procedures described in Falzari 2005 were used to generate the data shown in column 2 of Table 4.

[4] = molecular target: hKCNQ1/MinK (Homo sapiens, UniProt P51787); assay: biochemical; assay type: biochemical
[5] = molecular target: hNav1.5 Late (Homo sapiens, UniProt Q14524); assay: In vitro assessment of ion channels: hNav1.5 Late; assay type: biochemical
Chain of hNav1.5 Late (Q14524 whole entry): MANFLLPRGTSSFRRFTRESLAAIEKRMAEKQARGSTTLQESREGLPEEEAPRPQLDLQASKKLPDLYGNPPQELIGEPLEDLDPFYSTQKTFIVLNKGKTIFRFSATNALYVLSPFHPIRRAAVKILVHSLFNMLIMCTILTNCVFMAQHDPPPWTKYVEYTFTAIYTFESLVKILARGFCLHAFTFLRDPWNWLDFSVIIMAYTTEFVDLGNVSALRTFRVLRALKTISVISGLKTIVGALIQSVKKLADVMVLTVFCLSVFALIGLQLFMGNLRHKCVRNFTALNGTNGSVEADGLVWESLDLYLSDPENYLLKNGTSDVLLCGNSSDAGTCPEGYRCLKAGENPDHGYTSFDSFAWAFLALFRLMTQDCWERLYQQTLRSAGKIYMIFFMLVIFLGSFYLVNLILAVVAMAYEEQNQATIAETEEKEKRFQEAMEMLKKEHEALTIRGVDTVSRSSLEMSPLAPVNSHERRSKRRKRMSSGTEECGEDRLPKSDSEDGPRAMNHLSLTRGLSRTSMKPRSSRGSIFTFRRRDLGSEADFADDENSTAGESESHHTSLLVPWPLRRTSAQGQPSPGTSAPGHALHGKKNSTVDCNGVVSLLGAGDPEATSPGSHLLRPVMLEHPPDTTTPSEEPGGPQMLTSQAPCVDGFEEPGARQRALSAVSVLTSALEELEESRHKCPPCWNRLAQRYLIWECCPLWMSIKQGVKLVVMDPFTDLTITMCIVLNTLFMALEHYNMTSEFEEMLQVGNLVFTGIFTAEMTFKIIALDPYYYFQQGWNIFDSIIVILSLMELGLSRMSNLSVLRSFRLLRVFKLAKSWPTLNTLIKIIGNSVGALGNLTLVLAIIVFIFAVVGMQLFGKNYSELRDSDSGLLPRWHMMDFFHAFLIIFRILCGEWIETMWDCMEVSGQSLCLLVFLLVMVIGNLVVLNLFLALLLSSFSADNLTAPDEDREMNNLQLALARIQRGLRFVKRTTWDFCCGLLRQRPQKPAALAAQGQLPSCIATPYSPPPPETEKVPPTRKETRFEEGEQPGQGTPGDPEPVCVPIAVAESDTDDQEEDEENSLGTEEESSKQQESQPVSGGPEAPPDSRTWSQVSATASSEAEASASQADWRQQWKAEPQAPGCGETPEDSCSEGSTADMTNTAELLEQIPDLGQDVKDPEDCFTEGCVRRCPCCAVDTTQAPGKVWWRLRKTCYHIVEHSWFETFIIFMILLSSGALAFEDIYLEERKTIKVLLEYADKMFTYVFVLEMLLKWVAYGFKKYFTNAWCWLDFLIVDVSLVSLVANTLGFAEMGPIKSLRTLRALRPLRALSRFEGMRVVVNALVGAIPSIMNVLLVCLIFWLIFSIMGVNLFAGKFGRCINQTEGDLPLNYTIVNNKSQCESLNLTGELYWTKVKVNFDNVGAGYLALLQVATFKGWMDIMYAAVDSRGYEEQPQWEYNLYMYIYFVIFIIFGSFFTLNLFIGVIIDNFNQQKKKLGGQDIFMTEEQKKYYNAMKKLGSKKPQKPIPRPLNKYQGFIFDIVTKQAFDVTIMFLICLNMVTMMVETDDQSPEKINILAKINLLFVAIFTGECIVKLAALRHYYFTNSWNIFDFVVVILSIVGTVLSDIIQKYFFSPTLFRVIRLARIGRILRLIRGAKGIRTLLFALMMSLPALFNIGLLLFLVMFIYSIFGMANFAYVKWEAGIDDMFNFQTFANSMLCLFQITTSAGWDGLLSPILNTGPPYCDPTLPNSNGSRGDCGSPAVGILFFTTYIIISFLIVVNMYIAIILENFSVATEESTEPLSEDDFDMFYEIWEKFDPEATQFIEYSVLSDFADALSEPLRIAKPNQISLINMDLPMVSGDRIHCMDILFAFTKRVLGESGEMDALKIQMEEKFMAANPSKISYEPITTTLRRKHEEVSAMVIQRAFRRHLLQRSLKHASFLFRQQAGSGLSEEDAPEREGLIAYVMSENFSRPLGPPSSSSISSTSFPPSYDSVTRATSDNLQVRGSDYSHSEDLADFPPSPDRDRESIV

[6] = molecular target: hCav1.2 (Homo sapiens, UniProt Q13936); assay: biochemical
[7] = molecular target: hNav1.5 Peak (Homo sapiens, UniProt Q14524); assay: In vitro assessment of ion channels: hNav1.5 Peak; assay type: biochemical
Chain of hNav1.5 Peak (Q14524 whole entry): as above

[8] = QTc (QTcV) prolongation in dogs after oral dosing, with plasma level at 1 hr; settings: for concentration at 1 h: dog, plasma, po; for Max. QTcv / QTcV @ 1 hr / C1 hr / corrected QT (QTc) prolongation in dogs: dogs; for Max. QTcv / QTcV @ 1 hr / C1 hr: PO; for QTcV @ 1 hr / C1 hr: 1 hr
[9] = molecular target: hERG (Homo sapiens, UniProt Q12809); assay: biochemical
[10] = test system: M. tb H37Rv; assay: microbe, parasite or virus in culture; assay type: cell-based; settings: Mycobacterium tuberculosis, read-out: M. tb H37Rv: MIC-LORA
[11] = test system: M. tb H37Rv; assay type: cell-based, Mycobacterium tuberculosis
[12] = VERO cell cytotoxicity; assay type: cell-based; settings: African green monkey, VERO cells
From the text: as §1

[13] = Table 3, read-out: hNav1.5 Late IC50

For `Cc1cc(C)c2cc(C(=O)NC3CC[Si](C)(C)C3)[nH]c2c1` (single isomer, unassigned) [MPL-296A], the “M. tb H37Rv: MIC-MABA” value [1] was 0.0007- μg/mL, the “M. ab_ATCC: MIC MHII: MIC” value [2] was less than 0.063 µg/mL and the “VERO Cell: Cytotoxicity-IC50” value [3] was greater than 64 µg/mL.

For `Cc1cc(C)c2cc(C(=O)NC3CC[Si](C)(C)C3)[nH]c2c1` (single isomer, unassigned) [MPL-296B], the “M. tb H37Rv: MIC-MABA” value [1] was 0.052- μg/mL, the “M. ab_ATCC: MIC MHII: MIC” value [2] was 0.5 µg/mL and the “VERO Cell: Cytotoxicity-IC50” value [3] was greater than 64 µg/mL.

Work on `C[C@@H]1C(NC(=O)c2cc3c(F)cc(F)cc3[nH]2)CC2C[C@@H]1C2(C)C` (stereo partly drawn) [JS-2-02] yielded an IC50 ([4]; Table 2) of 6.2 µM, an IC50 ([5]; Table 2, read-out: hNav1.05 Late IC50) greater than 10 µM and an IC50 ([6]; Table 2) greater than 10 µM. For the same compound, the IC50 ([7]; Table 2) was 5.17 µM, the concentration at 1 h ([8]; 50 mg/kg) was 1200 ng/mL and the “Max. QTcv” value ([8]; 50 mg/kg) was 6.8 ms. For the same compound, the “QTcV @ 1 hr” value ([8]; 50 mg/kg) was 1.2 ms, the “Max. QTcv” value ([8]; 150 mg/kg) was 37 ms and the C1 hr ([8]; 150 mg/kg) was 1100 ng/mL. For the same compound, the “QTcV @ 1 hr” value ([8]; 150 mg/kg) was 2.8 ms and the IC50 ([9]; hERG IC50, Table 2) was greater than 10 µM.

For `C[Si]1(C)CCC(NC(=O)c2cc3c(Cl)cc(Cl)cc3[nH]2)CC1` [MPL-203, 4,6-dichloro-N-(1,1-dimethylsilinan-4-yl)-1H-Indole-2-carboxamide], the “hKCNQ1 channel inhibition” value [4] was “do not inhibit the hKCNQ1 channel”, the IC50 ([4]; Table 3) was 2.71 µM and the MIC [10] was greater than 32 µg/mL. It also gave an IC50 [5, 13] greater than 10 µM, an MIC [11] of 0.003 µg/mL (≈ 0.00844 µM) and an IC50 ([6]; Table 3) greater than 10 µM. It also gave an IC50 ([7]; Table 3) greater than 10 µM, an MIC [1] of 0.0033 µg/mL (≈ 0.00929 µM) and an MIC [2] greater than 64 µg/mL. For the same compound, the IC50 [12] was greater than 32 µg/mL and the IC50 ([9]; hERG IC50, Table 3) was greater than 10 µM.

With `C[Si]1(C)CCC(NC(=O)c2cc3c(F)cc(F)cc3[nH]2)CC1` [MPL-204, N-(1,1-dimethylsilinan-4-yl)-4,6-difluoro-1H-indole-2-carboxamide] the “hKCNQ1 channel inhibition” value [4] was “do not inhibit the hKCNQ1 channel”, the IC50 ([4]; Table 3) was 7.56 µM and the MIC [10] was greater than 32 µg/mL. For the same compound, the IC50 [5, 13] was greater than 10 µM, the MIC [11] was 0.003 µg/mL (≈ 0.0093 µM) and the IC50 ([6]; Table 3) was greater than 10 µM. For the same compound, the IC50 ([7]; Table 3) was greater than 10 µM, the MIC [1] was 0.0035 µg/mL (≈ 0.0109 µM) and the MIC [2] was greater than 64 µg/mL. It also gave an IC50 [12] greater than 32 µg/mL and an IC50 ([9]; hERG IC50, Table 3) greater than 10 µM.

`C[Si]1(C)CCC(NC(=O)c2cc3c(Br)cc(C(F)(F)F)cc3[nH]2)CC1` [MPL-339, 4-bromo-N-(1,1-dimethylsilinan-4-yl)-6-(trifluoromethyl)-1H-indole-2-carboxamide] gave an MIC [10] greater than 20 µg/mL, an MIC [1] of less than 0.004 µg/mL and an MIC [2] greater than 64 µg/mL. The IC50 [12] was greater than 20 µg/mL.

`Cc1cc(C#N)cc2[nH]c(C(=O)NC3CC[Si](C)(C)CC3)cc12` [MPL-340, 6-cyano-N-(1,1-dimethylsilinan-4-yl)-4-methyl-1H-indole-2-carboxamide] showed an MIC [10] greater than 20 µg/mL, an MIC [1] of less than 0.004 µg/mL and an MIC [2] greater than 64 µg/mL. It also gave an IC50 [12] greater than 20 µg/mL.

Compound `Cc1cc(C#N)c2cc(C(=O)NC3CC[Si](C)(C)CC3)[nH]c2c1` [MPL-344, 4-cyano-N-(1,1-dimethylsilinan-4-yl)-6-methyl-1H-indole-2-carboxamide] has an MIC [10] greater than 20 µg/mL, an MIC [1] of 0.008 µg/mL (≈ 0.0246 µM) and an MIC [2] greater than 64 µg/mL. For the same compound, the IC50 [12] was greater than 20 µg/mL.

With `CC(C)Oc1cc(F)cc2[nH]c(C(=O)NC3CC[Si](C)(C)CC3)cc12` [MPL-383, N-(1,1-dimethylsilinan-4-yl)-6-fluoro-4-isopropoxy-1H-indole-2-carboxamide] the MIC [10] was greater than 20 µg/mL, the MIC [1] was 0.0148 µg/mL (≈ 0.0408 µM) and the MIC [2] was greater than 64 µg/mL. The IC50 [12] was greater than 20 µg/mL.

Compound `COCCOc1cc(F)cc2[nH]c(C(=O)NC3CC[Si](C)(C)CC3)cc12` [MPL-384, N-(1,1-dimethylsilinan-4-yl)-6-fluoro-4-(2-methoxyethoxy)-1H-indole-2-carboxamide] has an MIC [10] of 9.36 µg/mL (≈ 24.7 µM), an MIC [1] of 0.0308 µg/mL (≈ 0.0814 µM) and an MIC [2] greater than 64 µg/mL. The IC50 [12] was greater than 20 µg/mL.

In the case of `Cc1cc(C(F)(F)F)c2cc(C(=O)NC3CC[Si](C)(C)CC3)[nH]c2c1` [MPL-385, N-(1,1-dimethylsilinan-4-yl)-6-methyl-4-(trifluoromethyl)-1H-indole-2-carboxamide], the MIC [10] is reported as 12.7 µg/mL (≈ 34.5 µM), the MIC [1] is reported as less than 0.004 µg/mL and the MIC [2] is reported as 64 µg/mL (≈ 174 µM). For the same compound, the IC50 [12] was greater than 20 µg/mL.

`Cc1cc(C(F)(F)F)c2cc(C(=O)NC3CCC[Si](C)(C)CCC3)[nH]c2c1` [MPL-386, N-(1,1-dimethylsilocan-5-yl)-6-methyl-4-(trifluoromethyl)-1H-indole-2-carboxamide] gave an MIC [10] greater than 20 µg/mL, an MIC [1] of less than 0.004 µg/mL and an MIC [2] greater than 64 µg/mL. It also gave an IC50 [12] greater than 20 µg/mL.

For `C[Si]1(C)CCC(NC(=O)c2cc3c(F)cc(F)cc3[nH]2)C1` (stereo not drawn) [MPL-400, N-(1,1-dimethylsilolan-3-yl)-4,6-difluoro-1H-indole-2-carboxamide], the MIC [10] was greater than 20 µg/mL, the MIC [1] was 0.0113 µg/mL (≈ 0.0366 µM) and the MIC [2] was greater than 64 µg/mL. It also gave an IC50 [12] greater than 20 µg/mL.

Work on `Cc1cc(F)c2cc(C(=O)NC3CC[Si](C)(C)CC3)[nH]c2c1` [MPL-470, N-(1,1-dimethylsilinan-4-yl)-4-fluoro-6-methyl-1H-indole-2-carboxamide] yielded an MIC [10] greater than 20 µg/mL, an MIC [1] of 0.007 µg/mL (≈ 0.022 µM) and an MIC [2] greater than 64 µg/mL. For the same compound, the IC50 [12] was greater than 20 µg/mL.

`CC1(C)CCC(NC(=O)c2cc3c(Cl)cc(Cl)cc3[nH]2)CC1` [NITD-304] showed an IC50 [4] of 0.71 µM, an IC50 ([5]; read-out: hNav1.05 Late IC50) of 6.4 µM and an IC50 ([6]; Table 2) of 2.01 µM. The IC50 ([6]; Table 3) was 2.01 µM, the IC50 [7] was greater than 10 µM and the concentration at 1 h ([8]; 150 mg/kg) was 300 ng/mL. For the same compound, the “corrected QT (QTc) prolongation in dogs” value [8] was “dramatic corrected QT (QTc) prolongation”, the “Max. QTcv” value ([8]; 50 mg/kg) was 49 ms and the C1 hr ([8]; 50 mg/kg) was 250 ng/mL. The “QTcV @ 1 hr” value ([8]; 50 mg/kg) was -0.6 ms, the “Max. QTcv” value ([8]; 150 mg/kg) was 120 ms and the “QTcV @ 1 hr” value ([8]; 150 mg/kg) was 0.3 ms. For the same compound, the IC50 ([9]; hERG IC50, Table 2) was greater than 10 µM, the IC50 ([9]; hERG IC50, Table 3) was greater than 10 µM and the IC50 ([9]; hERG IC50, stated in text) was greater than 50 µM.

With `CC1(C)CCC(NC(=O)c2cc3c(F)cc(F)cc3[nH]2)CC1` [NITD-349] the IC50 [4] was 0.058 µM, the IC50 ([5]; read-out: hNav1.05 Late IC50) was greater than 10 µM and the IC50 ([5]; read-out: hNav1.5 Late IC50) was greater than 10 µM. It also gave an IC50 ([6]; Table 2) of 9.53 µM, an IC50 ([6]; Table 3) of 9.5 µM and an IC50 [7] greater than 10 µM. The “corrected QT (QTc) prolongation in dogs” value [8] was “dramatic corrected QT (QTc) prolongation”, the “Max. QTcv” value ([8]; 50 mg/kg) was 170 ms and the C1 hr ([8]; 50 mg/kg) was 790 ng/mL. The “QTcV @ 1 hr” value ([8]; 50 mg/kg) was 11 ms, the “Max. QTcv” value ([8]; 150 mg/kg) was 170 ms and the “QTcV @ 1 hr” value ([8]; 150 mg/kg) was 13.6 ms. The IC50 ([9]; hERG IC50, Table 2) was greater than 10 µM, the IC50 ([9]; hERG IC50, Table 3) was greater than 10 µM and the IC50 ([9]; hERG IC50, stated in text) was greater than 50 µM.
